The experiment addresses 72 kDa type IV collagenase (Homo sapiens, UniProt P08253). Kind of experiment: MMP-2 Inhibition Assay. The procedure:
This esterase assay used 4-nitrophenylacetate as a substrate. Initially, the rhMMP-2 was diluted to 100 µg/mL with 1 mM APMA in assay buffer. Later, the reaction was incubated at 37℃ for 1 hour. Then the rhMMP-2 was diluted to 0.2 µg/mL in assay buffer, whereas the substrate was diluted to 20 µM by assay buffer. To each well of 96-well plate, 50 µL diluted rhMMP-2 was loaded along with 100 µL diverse concentration of test compounds. The reaction was started by adding 50 μL of 20 μM substrate to each well. After progress in kinetic mode for 5 minutes, the results were read at excitation and emission wavelengths of 320 nm and 405 nm, respectively.

Molecules are shown by their SMILES.

72 kDa type IV collagenase, sequence (P08253 whole entry): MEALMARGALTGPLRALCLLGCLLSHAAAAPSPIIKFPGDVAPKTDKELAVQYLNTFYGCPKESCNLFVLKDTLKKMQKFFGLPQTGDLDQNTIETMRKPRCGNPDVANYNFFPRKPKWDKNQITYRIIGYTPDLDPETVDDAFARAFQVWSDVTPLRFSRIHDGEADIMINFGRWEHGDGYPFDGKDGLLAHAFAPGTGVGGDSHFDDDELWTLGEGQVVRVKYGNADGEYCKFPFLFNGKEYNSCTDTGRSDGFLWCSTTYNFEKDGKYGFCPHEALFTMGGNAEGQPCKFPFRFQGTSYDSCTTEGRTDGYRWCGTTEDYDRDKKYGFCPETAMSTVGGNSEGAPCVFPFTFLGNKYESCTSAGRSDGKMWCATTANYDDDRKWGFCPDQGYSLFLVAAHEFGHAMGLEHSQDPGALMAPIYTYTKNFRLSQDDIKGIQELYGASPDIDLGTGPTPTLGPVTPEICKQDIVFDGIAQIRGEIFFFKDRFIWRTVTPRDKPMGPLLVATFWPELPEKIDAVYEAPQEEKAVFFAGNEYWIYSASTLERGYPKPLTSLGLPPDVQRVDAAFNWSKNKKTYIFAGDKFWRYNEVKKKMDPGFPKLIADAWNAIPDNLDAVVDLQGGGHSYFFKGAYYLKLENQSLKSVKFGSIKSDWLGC

As a reminder, the IC50 is the midpoint of a concentration-inhibition curve. Read a high IC50 as weaker potency. Take `NS(=O)(=O)c1ccc(N2N=C(c3ccccc3Cl)CC2c2ccccc2O)cc1` (stereo unspecified) [4-(3-(2-Chlorobenzene)-5-(2-hydroxyphenyl)-4,5-dihydropyrazole) benzene sulfonamide (4b)]: the IC50 stood at 11.5 µM.

With `NS(=O)(=O)c1ccc(N2N=C(c3ccc(Cl)c(Cl)c3)CC2c2ccccc2O)cc1` (stereo unspecified) [4-(3-(3,4-Dichlorobenzenebase)-5-(2-hydroxyphenyl)-4,5-dihydropyrazole) benzene sulfonamide (4g)], the IC50 was 12.9 µM.

In turn, `Cc1ccc(C2=NN(c3ccc(S(N)(=O)=O)cc3)C(c3ccccc3O)C2)cc1C` (stereo unspecified) [4-(3-(3,4-Dimethylphenyl)-5-(2-hydroxyphenyl)-4,5-dihydropyrazole) benzene sulfonamide (4f)] had a half-maximal inhibitory concentration (IC50) of 4.65 µM.

`NS(=O)(=O)c1ccc(N2N=C(c3ccc(Br)cc3)CC2c2cc(Cl)ccc2O)cc1` (stereo unspecified) [4-(3-(4-Brominephenyl)-5-(5-chloro-2-hydroxyphenyl)-4,5-dihydropyrazole) benzene sulfonamide (4m)] displayed an IC50 of 18.9 µM. This IC50 lies about 4.1-fold higher than the previous one.

`COc1cccc(C2=NN(c3ccc(S(N)(=O)=O)cc3)C(c3ccccc3O)C2)c1` (stereo unspecified) [4-(5-(2-Hydroxyphenyl)-3-(3-oxygenmethylphenyl)-4,5-dihydropyrazole) benzene sulfonamide (4e)] registered a half-maximal inhibitory concentration (IC50) of 1.81 µM.

In turn, `NS(=O)(=O)c1ccc(N2N=C(c3ccc(F)cc3)CC2c2ccccc2O)cc1` (stereo unspecified) [4-(5-(2-Hydroxyphenyl)-3-(4-fluorinatedphenyl)-4,5-dihydropyrazole) benzene sulfonamide (4x)] gave an IC50 of 24.7 µM. Compared with the last compound, the IC50 is about 14-fold higher.

Consider `COc1ccc(C2=NN(c3ccc(S(N)(=O)=O)cc3)C(c3ccccc3O)C2)cc1` (stereo unspecified) [4-(5-(2-Hydroxyphenyl)-3-(4-methoxyphenyl)-4,5-dihydropyrazole) benzene sulfonamide (4y)], for which the 50% inhibitory concentration (IC50) is 1.83 µM.

`NS(=O)(=O)c1ccc(N2N=C(c3ccccc3Cl)CC2c2cc(Br)ccc2O)cc1` (stereo unspecified) [4-(5-(5-Bromine-2-hydroxyphenyl)-3-(2-chlorobenzene)-4,5-dihydropyrazole) benzene sulfonamide (4t)] had a half-inhibitory concentration (IC50) of 15 µM.

With `NS(=O)(=O)c1ccc(N2N=C(c3ccc(Cl)c(Cl)c3)CC2c2cc(Br)ccc2O)cc1` (stereo unspecified) [4-(5-(5-Bromine-2-hydroxyphenyl)-3-(3,4-dichlorobenzene)-4,5-dihydropyrazole) benzene sulfonamide (4w)], inhibition was half-maximal at 16.2 µM (IC50).

Compound `COc1cccc(C2=NN(c3ccc(S(N)(=O)=O)cc3)C(c3cc(Br)ccc3O)C2)c1` (stereo unspecified) [4-(5-(5-Bromine-2-hydroxyphenyl)-3-(3-oxygenmethylphenyl)-4,5-dihydropyrazole) benzene sulfonamide (4r)] yielded an IC50 of 3.23 µM.

On to `NS(=O)(=O)c1ccc(N2N=C(c3ccc(Br)cc3)CC2c2cc(Br)ccc2O)cc1` (stereo unspecified) [4-(5-(5-Bromine-2-hydroxyphenyl)-3-(4-brominephenyl)-4,5-dihydropyrazole) benzene sulfonamide (4v)], for which the IC50 was determined as 8.73 µM.

As to `NS(=O)(=O)c1ccc(N2N=C(c3ccc(Cl)cc3)CC2c2cc(Br)ccc2O)cc1` (stereo unspecified) [4-(5-(5-Bromine-2-hydroxyphenyl)-3-(4-chlorobenzene)-4,5-dihydropyrazole) benzene sulfonamide (4u)], the IC50 was found to be 15.8 µM.

On to `NS(=O)(=O)c1ccc(N2N=C(c3ccccc3)CC2c2cc(Br)ccc2O)cc1` (stereo unspecified) [4-(5-(5-Bromine-2-hydroxyphenyl)-3-phenyl-4,5-dihydropyrazole) benzene sulfonamide (4q)], for which half-maximal inhibition (IC50) was put at 12.8 µM.

`NS(=O)(=O)c1ccc(N2N=C(c3ccccc3Cl)CC2c2cc(Cl)ccc2O)cc1` (stereo unspecified) [4-(5-(5-Chloro-2-hydroxyphenyl) -3 - (2 - chlorobenzene) - 4, 5 - dihydropyrazole) benzene sulfonamide (4i)] registered a 50% inhibitory concentration (IC50) of 16.4 µM.

For `NS(=O)(=O)c1ccc(N2N=C(c3ccc(Cl)c(Cl)c3)CC2c2ccc(Cl)cc2O)cc1` (stereo unspecified) [4-(5-(5-Chloro-2-hydroxyphenyl)-3-(3,4-dichlorobenzenebase)-4,5-dihydropyrazole) benzene sulfonamide (4n)], the IC50 came out at 16.5 µM. The IC50 values of the last two compounds are within 1.5-fold of each other.

`COc1cccc(C2=NN(c3ccc(S(N)(=O)=O)cc3)C(c3cc(Cl)ccc3O)C2)c1` (stereo unspecified) [4-(5-(5-Chloro-2-hydroxyphenyl)-3-(3-oxygenmethylphenyl)-4,5-dihydropyrazole) benzene sulfonamide (4p)] registered a concentration for half-maximal inhibition (IC50) of 2.13 µM.

In turn, `NS(=O)(=O)c1ccc(N2N=C(c3ccc(Cl)cc3)CC2c2cc(Cl)ccc2O)cc1` (stereo unspecified) [4-(5-(5-Chloro-2-hydroxyphenyl)-3-(4-chlorobenzene)-4,5-dihydropyrazole) benzene sulfonamide (4k)] showed a concentration for half-maximal inhibition (IC50) of 11.3 µM.

Take `CCOc1ccc(C2=NN(c3ccc(S(N)(=O)=O)cc3)C(c3ccc(Cl)cc3O)C2)cc1` (stereo unspecified) [4-(5-(5-Chloro-2-hydroxyphenyl)-3-(4-phenylethyloxygen)-4,5-dihydropyrazole) benzene sulfonamide (4o)]: inhibition was half-maximal at 3.84 µM (IC50).

`NS(=O)(=O)c1ccc(N2N=C(c3ccccc3)CC2c2ccc(Cl)cc2O)cc1` (stereo unspecified) [4-(5-(5-Chloro-2-hydroxyphenyl)-3-phenyl)-4,5-dihydro benzene sulfonamide pyrazole) (4j)] registered a half-inhibitory concentration (IC50) of 13.5 µM.

With `C[C@@]1(O)c2cccc(O)c2C(O)=C2C(=O)[C@]3(O)C(O)=C(C(N)=O)C(=O)C[C@@H]3C[C@@H]21` [(4aS,5aS,6S,12aR)-1,6,10,11,12a-pentahydroxy-6-methyl-3,12-dioxo-4,4a,5,5a-tetrahydrotetracene-2-carboxamide], it took 1.13 µM to reach half-maximal inhibition (IC50). This IC50 lies about 12-fold lower than the previous one.

`COc1ccc(C2=NN(c3ccc(S(N)(=O)=O)cc3)C(c3ccc(Cl)cc3O)C2)cc1` (stereo unspecified) [-(5-(5-Chloro-2-hydroxyphenyl)-3-(4-methylphenyloxygen)-4,5-dihydropyrazole) benzene sulfonamide (4l)] registered a half-maximal inhibitory concentration (IC50) of 4.62 µM.

The record behind these values is BindingDB's records for doi:10.1111/cbdd.12604 (Nanjing University, 2015).
